How the values were obtained:
KDM2A = target: T1, KDM2A (Homo sapiens, UniProt Q9Y2K7); experiment: KDM AlphaScreen selectivity panel, KDM2A; assay type: biochemical; conditions: for IC50: AlphaScreen after 120 min pre-incubation, read-out: KDM IC50 2A; for SI over KDM5B, 2A: KDM2A IC50/KDM5B IC50
T1 sequence (Q9Y2K7 1-1162): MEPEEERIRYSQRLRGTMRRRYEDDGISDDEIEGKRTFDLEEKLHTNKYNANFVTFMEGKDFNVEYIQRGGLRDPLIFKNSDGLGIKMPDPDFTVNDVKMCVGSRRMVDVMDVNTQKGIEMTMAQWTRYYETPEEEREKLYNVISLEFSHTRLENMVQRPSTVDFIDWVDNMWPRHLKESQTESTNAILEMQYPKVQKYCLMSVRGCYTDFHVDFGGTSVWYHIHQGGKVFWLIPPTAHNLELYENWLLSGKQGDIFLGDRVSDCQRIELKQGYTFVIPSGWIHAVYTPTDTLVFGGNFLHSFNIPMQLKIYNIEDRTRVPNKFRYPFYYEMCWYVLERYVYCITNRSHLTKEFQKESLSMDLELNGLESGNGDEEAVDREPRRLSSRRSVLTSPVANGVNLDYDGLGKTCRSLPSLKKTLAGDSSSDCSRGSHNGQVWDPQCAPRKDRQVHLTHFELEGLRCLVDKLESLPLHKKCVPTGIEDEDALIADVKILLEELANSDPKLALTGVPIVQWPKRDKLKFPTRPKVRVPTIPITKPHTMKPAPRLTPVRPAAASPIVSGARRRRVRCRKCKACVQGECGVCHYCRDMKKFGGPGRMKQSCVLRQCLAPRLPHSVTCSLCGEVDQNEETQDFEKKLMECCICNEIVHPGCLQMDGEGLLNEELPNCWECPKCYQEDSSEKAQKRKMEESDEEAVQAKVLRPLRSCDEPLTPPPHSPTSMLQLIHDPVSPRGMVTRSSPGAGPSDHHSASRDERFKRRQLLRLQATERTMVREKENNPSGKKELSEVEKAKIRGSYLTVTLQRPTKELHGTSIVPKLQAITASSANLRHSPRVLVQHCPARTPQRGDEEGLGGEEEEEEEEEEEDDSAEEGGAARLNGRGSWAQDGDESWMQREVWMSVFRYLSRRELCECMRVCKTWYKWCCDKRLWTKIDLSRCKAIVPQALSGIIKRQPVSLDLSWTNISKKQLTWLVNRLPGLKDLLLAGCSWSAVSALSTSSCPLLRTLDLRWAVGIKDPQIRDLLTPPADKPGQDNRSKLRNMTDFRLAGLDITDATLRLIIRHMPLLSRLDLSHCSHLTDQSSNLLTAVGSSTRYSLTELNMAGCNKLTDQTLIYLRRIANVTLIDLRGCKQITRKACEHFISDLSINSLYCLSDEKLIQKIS
Procedure: (§1) A panel of JmjC KDMs was tested by AlphaScreen to determine the selectivity of the compounds (Table S2). […]
(§2) KDM alpha screen selectivity
(§3) Inhibition of histone demethylases was assessed using the histone demethylase AlphaScreen assay (Amplified Luminescence Proximity Homogenous Assay) as previously reported.[4] The basis of this assay for lysine demethylases have been widely described.[5] In brief, the assay was performed in 384-well plate format using white proxiplates (PerkinElmer), and transfer of titrations of compounds (100 nl) was performed using an ECHO 550 acoustic dispenser […]
(§4) Tween- 20) containing the appropriate demethylase enzyme (see Supplementary table 1 for final concentrations) was transferred to each well of a 384-well proxiplate with a Multidrop™ Combi Reagent Dispenser, and the enzymes allowed to pre-incubate for 120 minutes with compound (final concentration of DMSO was 1%). After that time, the enzyme reaction was initiated by addition of 5 µl of a substrate mix consisting of Ketoglutarate (2-OG), Ferrous Ammonium Sulphate (FAS), L-Ascorbic Acid (LAA) and biotinylated peptide substrate (see Supporting table X for final assay concentrations) and the reaction incubated for the indicated time at room temperature. Reaction was stopped by the addition of 5 μl of assay buffer containing EDTA (7.5 mM) and NaCl (400 mM). Streptavidin Donor beads (0.08 mg/ml) and Protein-A conjugated acceptor beads (0.08 mg/ml) (AlphaScreen General IgG detection kit was from Perkin Elmer) were pre-incubated for 1 hour with an antibody to the product methyl mark (Supplementary Table 1) and the presence of biotin-H3-product was detected by addition of 5 µl of the pre-incubated AlphaScreen beads (final concentrations of 0.02 mg/ml with respect to acceptor and donor beads). Detection was allowed to proceed for 2 hour at room temperature and the assay plates read in a BMG Labtech Pherastar FS plate reader (excitation, 680 nm; emission, 570 […]
(§5) IC50(t) = Ki (1 + K ) . ( η . k .t − 1) (1) […]
(§6) Table S4. AlphaScreen assay conditions for the KDM selectivity panel

KDM5D = KDM5D (Homo sapiens, UniProt Q9BY66); experiment: KDM AlphaScreen selectivity panel, KDM5D; assay type: biochemical; conditions: for IC50: AlphaScreen after 120 min pre-incubation, read-out: KDM IC50 5D; for SI over KDM5B, 5D: KDM5D IC50/KDM5B IC50
Procedure: as §1, §2, §3, §4, §5, §6

KDM5D, sequence (Q9BY66 whole entry): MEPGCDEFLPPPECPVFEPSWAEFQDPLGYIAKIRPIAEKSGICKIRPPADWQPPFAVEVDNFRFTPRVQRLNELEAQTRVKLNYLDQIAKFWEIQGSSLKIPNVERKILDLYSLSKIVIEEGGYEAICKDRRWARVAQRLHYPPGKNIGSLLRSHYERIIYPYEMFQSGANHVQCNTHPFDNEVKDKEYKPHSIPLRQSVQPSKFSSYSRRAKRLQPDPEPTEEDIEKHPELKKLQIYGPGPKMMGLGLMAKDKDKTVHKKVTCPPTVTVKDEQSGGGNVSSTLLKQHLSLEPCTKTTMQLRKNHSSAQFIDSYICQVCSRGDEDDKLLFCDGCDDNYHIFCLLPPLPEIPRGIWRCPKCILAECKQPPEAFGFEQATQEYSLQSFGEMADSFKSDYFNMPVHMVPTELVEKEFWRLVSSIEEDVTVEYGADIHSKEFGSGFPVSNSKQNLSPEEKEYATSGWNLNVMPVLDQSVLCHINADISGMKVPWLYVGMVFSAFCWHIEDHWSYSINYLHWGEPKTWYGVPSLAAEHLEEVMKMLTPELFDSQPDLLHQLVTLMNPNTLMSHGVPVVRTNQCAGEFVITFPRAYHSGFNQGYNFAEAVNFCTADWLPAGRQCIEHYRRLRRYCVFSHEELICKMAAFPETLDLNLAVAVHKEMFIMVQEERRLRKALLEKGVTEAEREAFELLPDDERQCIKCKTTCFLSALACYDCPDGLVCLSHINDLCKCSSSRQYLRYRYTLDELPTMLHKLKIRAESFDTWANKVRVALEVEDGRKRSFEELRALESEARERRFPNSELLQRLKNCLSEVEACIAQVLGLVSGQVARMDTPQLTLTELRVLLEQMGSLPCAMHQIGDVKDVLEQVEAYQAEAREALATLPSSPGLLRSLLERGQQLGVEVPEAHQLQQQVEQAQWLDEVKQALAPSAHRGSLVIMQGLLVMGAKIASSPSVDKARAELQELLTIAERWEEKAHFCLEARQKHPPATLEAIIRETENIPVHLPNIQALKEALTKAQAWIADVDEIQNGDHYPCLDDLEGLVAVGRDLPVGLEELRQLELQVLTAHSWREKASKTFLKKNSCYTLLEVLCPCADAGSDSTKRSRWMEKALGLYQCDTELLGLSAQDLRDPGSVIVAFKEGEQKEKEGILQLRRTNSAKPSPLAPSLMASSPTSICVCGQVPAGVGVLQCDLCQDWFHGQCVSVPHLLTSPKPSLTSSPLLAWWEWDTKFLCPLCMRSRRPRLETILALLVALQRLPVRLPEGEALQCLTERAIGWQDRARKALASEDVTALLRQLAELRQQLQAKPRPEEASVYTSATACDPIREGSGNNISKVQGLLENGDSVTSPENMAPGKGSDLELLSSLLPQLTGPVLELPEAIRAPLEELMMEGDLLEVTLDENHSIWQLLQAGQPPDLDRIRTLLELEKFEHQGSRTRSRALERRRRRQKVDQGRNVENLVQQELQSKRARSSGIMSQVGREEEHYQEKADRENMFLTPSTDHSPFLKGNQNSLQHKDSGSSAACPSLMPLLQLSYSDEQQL

Row | IC50 (KDM2A) [nM] | SI over KDM5B, 2A (KDM2A) | IC50 (KDM5D) [nM] | SI over KDM5B, 5D (KDM5D) | SMILES
1 | 11300 ± 300 | 558 | 83 ± 7 | 4 | C=CC(=O)Nc1cccc(CN(C)CCc2cnn(-c3nccc4c(=O)[nH]cnc34)c2)c1 [Compound 4]
2 | > 100000 | > 14113 | 38 ± 1 | 5 | CC(C)c1c(-c2cnn(CCNC(=O)CCl)c2)[nH]c2c(C#N)cnn2c1=O [Compound 7]
3 | 4400 ± 100 | 451 | 48 ± 3 | 5 | CN(CCc1cnn(-c2nccc3c(=O)[nH]cnc23)c1)Cc1cccc(NC(=O)CCl)c1 [Compound 5]
4 | > 100000 | > 5843 | 78 ± 7 | 5 | C=CC(=O)N1CCC(n2cc(-c3[nH]c4c(C#N)cnn4c(=O)c3C(C)C)cn2)CC1 [Compound 10]
5 | > 100000 | > 1550 | 252 ± 10 | 4 | C=CC(=O)NCCOc1ccc(-c2[nH]c3c(C#N)cnn3c(=O)c2C(C)C)cc1 [Compound 9]
6 | > 33000 |  | 702 ± 47 |  | CN(C)C/C=C/C(=O)Nc1cccc(CN(C)CCc2cnn(-c3nccc4c(=O)[nH]cnc34)c2)c1 [Compound 6]
7 | > 60000 | > 6671 | 59 ± 2 | 7 | CC(C)c1c(-c2cnn(C3CCN(C(=O)CCl)CC3)c2)[nH]c2c(C#N)cnn2c1=O [Compound 11]
